According to PubChem BioAssay (NCI):
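Growth conditions: 96-well plates. Treatment: test compound, 48 hours, 5 concentrations. Analysis: linear interpolation between bracketing concentrations; unreached endpoints set to highest concentration. GI50: concentration for 50% inhibition of growth. At the TGI there is no net growth.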

Key:
Assay in all cases: inhibition of tumour cell growth, NCI panel, 48 h
MDA-MB-231 breast = tested on: MDA-MB-231 breast
786-0 renal = tested on: 786-0 renal
SK-MEL-5 melanoma = tested on: SK-MEL-5 melanoma
CCRF-CEM leukemia = tested on: CCRF-CEM leukemia
UO-31 renal = tested on: UO-31 renal
NCI/ADR-RES ovarian = tested on: NCI/ADR-RES ovarian
PC-3 prostate = tested on: PC-3 prostate
RPMI-8226 leukemia = tested on: RPMI-8226 leukemia
KM12 colon = tested on: KM12 colon
OVCAR-3 ovarian = tested on: OVCAR-3 ovarian
OVCAR-4 ovarian = tested on: OVCAR-4 ovarian
NCI-H226 lung = tested on: NCI-H226 lung
NCI-H522 lung = tested on: NCI-H522 lung
SK-MEL-2 melanoma = tested on: SK-MEL-2 melanoma
COLO 205 colon = tested on: COLO 205 colon
A498 renal = tested on: A498 renal
HCC-2998 colon = tested on: HCC-2998 colon
HOP-92 NSCLC = tested on: HOP-92 NSCLC
ACHN renal = tested on: ACHN renal
BT-549 breast = tested on: BT-549 breast
T-47D breast = tested on: T-47D breast
MCF7 breast = tested on: MCF7 breast
OVCAR-8 ovarian = tested on: OVCAR-8 ovarian
SN12C renal = tested on: SN12C renal
SK-MEL-28 melanoma = tested on: SK-MEL-28 melanoma
RXF 393 renal = tested on: RXF 393 renal
EKVX NSCLC = tested on: EKVX NSCLC
SF-268 CNS = tested on: SF-268 CNS
MOLT-4 leukemia = tested on: MOLT-4 leukemia
SW-620 colon = tested on: SW-620 colon
HCT-116 colon = tested on: HCT-116 colon
A549 NSCLC = tested on: A549 NSCLC
IGROV1 ovarian = tested on: IGROV1 ovarian
M14 melanoma = tested on: M14 melanoma
HOP-62 NSCLC = tested on: HOP-62 NSCLC
SF-539 CNS = tested on: SF-539 CNS
HCT-15 colon = tested on: HCT-15 colon
SNB-19 CNS = tested on: SNB-19 CNS
K-562 leukemia = tested on: K-562 leukemia
OVCAR-5 ovarian = tested on: OVCAR-5 ovarian
NCI-H460 lung = tested on: NCI-H460 lung
UACC-62 melanoma = tested on: UACC-62 melanoma
TK-10 renal = tested on: TK-10 renal
UACC-257 melanoma = tested on: UACC-257 melanoma
DU-145 prostate = tested on: DU-145 prostate
HL-60(TB) leukemia = tested on: HL-60(TB) leukemia
SNB-75 CNS = tested on: SNB-75 CNS
U251 CNS = tested on: U251 CNS
LOX IMVI melanoma = tested on: LOX IMVI melanoma
HT29 colon = tested on: HT29 colon
NCI-H23 lung = tested on: NCI-H23 lung
SK-OV-3 ovarian = tested on: SK-OV-3 ovarian
SF-295 CNS = tested on: SF-295 CNS
SR leukemia = tested on: SR leukemia
HS 578T breast = tested on: HS 578T breast
CAKI-1 renal = tested on: CAKI-1 renal

**Q.** Which results are given for COc1cccc2c1C(=O)c1c(O)c3c(c(O)c1C2=O)C[C@@](O)(/C(C)=N/NC(=O)c1cccc([N+](=O)[O-])c1)C[C@@H]3OC1CC(N)C(O)C(C)O1 (stereo not given in full)?
**A.** GI50 (MDA-MB-231 breast): 1590 nM; TGI (MDA-MB-231 breast): 21300 nM; GI50 (786-0 renal): 306 nM; TGI (786-0 renal): 5680 nM; GI50 (SK-MEL-5 melanoma): 113 nM; TGI (SK-MEL-5 melanoma): 361 nM; GI50 (CCRF-CEM leukemia): 167 nM; TGI (CCRF-CEM leukemia): 4330 nM; GI50 (UO-31 renal): 882 nM; TGI (UO-31 renal): > 22000 nM; GI50 (NCI/ADR-RES ovarian): 5260 nM; TGI (NCI/ADR-RES ovarian): 35800 nM; GI50 (PC-3 prostate): 616 nM; TGI (PC-3 prostate): 8740 nM; GI50 (RPMI-8226 leukemia): 200 nM; TGI (RPMI-8226 leukemia): 1860 nM; GI50 (KM12 colon): 404 nM; TGI (KM12 colon): 10900 nM; GI50 (OVCAR-3 ovarian): 396 nM; TGI (OVCAR-3 ovarian): 5260 nM; GI50 (OVCAR-4 ovarian): 650 nM; TGI (OVCAR-4 ovarian): 11300 nM; GI50 (NCI-H226 lung): 160 nM; TGI (NCI-H226 lung): 714 nM; GI50 (NCI-H522 lung): 494 nM; TGI (NCI-H522 lung): 5960 nM; GI50 (SK-MEL-2 melanoma): 996 nM; TGI (SK-MEL-2 melanoma): 3230 nM; GI50 (COLO 205 colon): 208 nM; TGI (COLO 205 colon): 1500 nM; GI50 (A498 renal): 564 nM; TGI (A498 renal): 2230 nM; GI50 (HCC-2998 colon): 326 nM; TGI (HCC-2998 colon): 2770 nM; GI50 (HOP-92 NSCLC): 201 nM; TGI (HOP-92 NSCLC): 4710 nM; GI50 (ACHN renal): 205 nM; TGI (ACHN renal): 1650 nM; GI50 (BT-549 breast): 714 nM; TGI (BT-549 breast): 4430 nM; GI50 (T-47D breast): 176 nM; TGI (T-47D breast): 1260 nM; GI50 (MCF7 breast): 61.3 nM; TGI (MCF7 breast): 18500 nM; GI50 (OVCAR-8 ovarian): 366 nM; TGI (OVCAR-8 ovarian): 21000 nM; GI50 (SN12C renal): 233 nM; TGI (SN12C renal): 16900 nM; GI50 (SK-MEL-28 melanoma): 608 nM; TGI (SK-MEL-28 melanoma): 2450 nM; GI50 (RXF 393 renal): 494 nM; TGI (RXF 393 renal): 2210 nM; GI50 (EKVX NSCLC): 495 nM; TGI (EKVX NSCLC): 4660 nM; GI50 (SF-268 CNS): 269 nM; TGI (SF-268 CNS): 2260 nM; GI50 (MOLT-4 leukemia): 52.4 nM; TGI (MOLT-4 leukemia): 4900 nM; GI50 (SW-620 colon): 156 nM; TGI (SW-620 colon): 9400 nM; GI50 (HCT-116 colon): 131 nM; TGI (HCT-116 colon): 5250 nM; GI50 (A549 NSCLC): 362 nM; TGI (A549 NSCLC): 11800 nM; GI50 (IGROV1 ovarian): 932 nM; GI50 (M14 melanoma): 324 nM; TGI (M14 melanoma): 1510 nM; GI50 (HOP-62 NSCLC): 283 nM; TGI (HOP-62 NSCLC): 4410 nM; GI50 (SF-539 CNS): 210 nM; TGI (SF-539 CNS): 1220 nM; GI50 (HCT-15 colon): 1570 nM; TGI (HCT-15 colon): 14200 nM; GI50 (SNB-19 CNS): 291 nM; TGI (SNB-19 CNS): 12000 nM; GI50 (K-562 leukemia): 356 nM; TGI (K-562 leukemia): 5160 nM; GI50 (OVCAR-5 ovarian): 919 nM; TGI (OVCAR-5 ovarian): 13500 nM; GI50 (NCI-H460 lung): 54.8 nM; TGI (NCI-H460 lung): 12900 nM; GI50 (UACC-62 melanoma): 199 nM; TGI (UACC-62 melanoma): 1500 nM; GI50 (TK-10 renal): 896 nM; TGI (TK-10 renal): 10200 nM; GI50 (UACC-257 melanoma): 757 nM; TGI (UACC-257 melanoma): 3430 nM; GI50 (DU-145 prostate): 272 nM; TGI (DU-145 prostate): 1810 nM; GI50 (HL-60(TB) leukemia): 146 nM; TGI (HL-60(TB) leukemia): 923 nM; GI50 (SNB-75 CNS): 220 nM; TGI (SNB-75 CNS): 1500 nM; GI50 (U251 CNS): 220 nM; TGI (U251 CNS): 14000 nM; GI50 (LOX IMVI melanoma): 146 nM; TGI (LOX IMVI melanoma): 15400 nM; GI50 (HT29 colon): 238 nM; TGI (HT29 colon): 11200 nM; GI50 (NCI-H23 lung): 316 nM; TGI (NCI-H23 lung): 2870 nM; GI50 (SK-OV-3 ovarian): 374 nM; TGI (SK-OV-3 ovarian): 7560 nM; GI50 (SF-295 CNS): 187 nM; TGI (SF-295 CNS): 997 nM; GI50 (SR leukemia): 15.5 nM; GI50 (HS 578T breast): 561 nM; TGI (HS 578T breast): 5500 nM; GI50 (CAKI-1 renal): 411 nM; TGI (CAKI-1 renal): 2740 nM
